Structures can show the parent of a compound that is named as a salt. Where two headings read alike, the source gives them in different places.

One series has as its target SXT-Exo (S066) (Vibrio cholerae, UniProt Q8KQV9). In words: quenched PicoGreen dsDNA exonuclease assay. It is filed as biochemical.
The target in series [1] is SXT-Exo alkaline exonuclease (S066) from the SXT genetic element of Vibrio cholerae (SXT integrating conjugative element of Vibrio cholerae) (UniProt Q79S39). In words: SEC; Superdex 200 HR 10/300 GL, 25 mM Tris-HCl pH7.4, 150 mM NaCl, 1 mM EDTA, 5 mM imidazole, 0.4 ml/min, 4°C; column calibrated with protein standards; oligomer size from the apparent molecular weight.
For a further series, the target named is Q79S39. Described as above.
The target of the next series is P03697. The series is described as above.

SXT-Exo (S066), sequence (Q8KQV9 1-338 limits assumed): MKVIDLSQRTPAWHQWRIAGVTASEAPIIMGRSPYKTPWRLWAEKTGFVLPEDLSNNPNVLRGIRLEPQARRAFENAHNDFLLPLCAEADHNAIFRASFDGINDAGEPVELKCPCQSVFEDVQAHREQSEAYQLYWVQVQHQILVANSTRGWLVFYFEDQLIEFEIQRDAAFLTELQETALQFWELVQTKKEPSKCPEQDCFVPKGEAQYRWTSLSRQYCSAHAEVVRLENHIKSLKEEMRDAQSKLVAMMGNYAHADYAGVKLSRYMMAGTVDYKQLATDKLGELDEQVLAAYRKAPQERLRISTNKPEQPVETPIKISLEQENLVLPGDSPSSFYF

By IC50 is commonly meant the concentration at which inhibition is half-maximal. The low end stands for greater potency in that assay, the high end for weaker potency in that assay. As for `O=S(=O)(O)O` [potassium sulfate], the IC50 on SXT-Exo (S066) was roughly 35 mM.

In the case of `O=P(O)(O)O` [sodium phosphate], the IC50 on SXT-Exo (S066) (IC50) turned out to be 25 mM.

For the molecule `O=S(=O)(O)O` [sodium sulfate], the IC50 against SXT-Exo (S066) (IC50) was roughly 20 mM.

What is called stoichiometry N is a count of units in the complex or per binding partner. Consider “SXT-Exo alkaline exonuclease (S066) from the SXT genetic element of Vibrio cholerae (from UniProt Q79S39 1-215) (enzyme)”, for which the stoichiometry N in series [1] amounted to 3.

B1: SXT-Exo alkaline exonuclease (S066) from the SXT genetic element of Vibrio cholerae (protein)
chain: MKTLSERLNHALQLTGVTQSELARRIGIKQQSISQICSGKSARSRYTMQIAEALRVNAHWLATGDGEIGLGVGNVEVGPDIKGRIPLINWVQAGDWTEIAEGFAHEDAEEWREVTGKAHEGCFALRVKGDSMENPSGKKSIPEGAVIVVDPELPYSSGSLVVARLDDSKEATFKQLVIDGEQKYLKPLNPQYPAIPINGNCTIIGVVRQAIIDFW
In the case of B1, the “monomers per oligomer from the SEC apparent molecular weight” value with Q79S39 is given as “corresponded to ca. 3.5 SXT-Exo monomers”.

B2: lambda-Exo alkaline exonuclease from bacteriophage lambda (protein)
chain: MTPDIILQRTGIDVRAVEQGDDAWHKLRLGVITASEVHNVIAKPRSGKKWPDMKMSYFHTLLAEVCTGVAPEVNAKALAWGKQYENDARTLFEFTSGVNVTESPIIYRDESMRTACSPDGLCSDGNGLELKCPFTSRDFMKFRLGGFEAIKSAYMAQVQYSMWVTRKNAWYFANYDPRMKREGLHYVVIERDEKYMASFDEIVPEFIEKMDEALAEIGFVFGEQWR
Consider B2, for which the “monomers per oligomer from the SEC apparent molecular weight” value with P03697 is reported as “corresponded to 3.35 protein monomers”.

The values above are taken from paper PMC3118119, “Functional characterization of an alkaline exonuclease and single strand annealing protein from the SXT genetic element of Vibrio cholerae” (BMC Molecular Biology, 2011).
